Measured values reported in publication PMC6720825, “Thiol-ene "Click" Synthesis and Pharmacological Evaluation of C-Glycoside sp^2-Iminosugar Glycolipids” (Molecules, 2019).
Entries after “also recorded” stand apart in the source; their conditions may differ. Where two headings read alike, the source gives them in different places.

Experiments:
[1] = tested on: human solid tumor cell lines A549, SW1573 (lung), HBL-100, T-47D (breast), HeLa (cervix), WiDr (colon); test: Antiproliferative activity (SRB assay) against a panel of six human solid tumor cell lines; assay type: cell-based; conditions: for GI50: read-out: GI50 (concentration to achieve 50% growth inhibition), 48 h, tested 1 to 100 μM, only values below 100 μM significant; for GI50 (concentration to achieve 50% growth inhibition): 48 h, tested 1 to 100 μM, only values below 100 μM significant
Experimental: The antiproliferative activity of all the sp^2-iminosugar C-glycosides (1–12) was evaluated against a panel of six representative human solid tumor cell lines including lung (A549 and SW1573), breast (HBL-100, T-47D), cervix (HeLa), and colon (WiDr).
All reagents were used as purchased from commercial suppliers without further purification. The human solid tumor cell lines A549 (lung), HBL-100 (breast), HeLa (cervix), SW1573 (lung), T-47D (breast), and WiDr (colon) were used in this study. These cell lines were a kind gift from Prof. G. J. Peters (VU Medical Center, Amsterdam, The Netherlands).
Cells were inoculated onto 96-well microtiter plates in a volume of 100 μL per well at densities of 2500 (A549, HBL-100, HeLa, and SW1573) and 5000 (T-47D and WiDr) cells per well, based on their doubling times. Compounds were initially dissolved in DMSO at 400 times the desired final maximum test concentration. Control cells were exposed to an equivalent concentration of DMSO (0.25% v/v, negative control). Each agent was tested in triplicate at different dilutions in the range of 1 to 100 μM. The drug treatment started on day 1 after plating. Drug incubation times were 48 h, after which cells were precipitated with 25 μL ice-cold TCA (50% w/v) and fixed for 60 min at 4 °C. Then the SRB assay was performed. The optical density (OD) of each well was measured at 530 nm, using BioTek’s PowerWave XS Absorbance Microplate Reader. Values were corrected for background OD from wells only containing medium. The antiproliferative activity for each compound, expressed as GI50 values, was calculated according to NCI formulas.

[2] = tested on: human lung fibroblast MRC-5 cells; test: Cellular toxicity (MTT assay) in MRC-5 cells; assay type: cell-based; conditions: for EC50: Homo sapiens, MRC5, MTT assay, 72 h at 37 °C; for SI (EC50 MRC-5/EC50 parasite): Selectivity Index
[3] = tested on: intracellular amastigotes of Leishmania donovani MHOM/ET/67/HU3 line; test: Susceptibility of intracellular Leishmania amastigotes (luciferase assay); assay type: cell-based; conditions: L. donovani in THP-1 macrophages, 72 h at 37 °C, threshold 20 μM
Experimental: The leishmanicidal activity of all the synthesized sp^2-iminosugar C-glycosides (1–12) was evaluated against intracellular amastigotes of Leishmania donovani MHOM/ET/67/HU3 line with luciferase gene integrated into the parasite genome. […] A strong influence of the nature of the lipid chain α-linked to the pseudoanomeric position of the bicyclic core in the sp^2-IGLs was inferred from the corresponding data. […] The longer-chain sp^2-IGLs 2 and 8 were over the 20 μM concentration threshold in this assay. In the sulfone series, the results evidenced some disparity between the ONJ and OGJ epimers.
Macrophage-differentiated THP-1 cells, which are considered a suitable model for human macrophages, were plated at a density of 3 × 10^4 or 3 × 10^5 macrophages/well in 96-well white polystyrene microplates or 24-well tissue culture chamber slides, respectively, and were infected at a macrophage/parasite ratio of 1:10 with L. donovani promastigotes. Twenty-four hours after infection at 35 °C and 5% CO2, extracellular parasites were removed by washing with serum-free medium. Infected cell cultures were then incubated at different compound concentrations in RPMI 1640 medium plus 10% iFBS at 37 °C with 5% CO2 for 72 h. To determine the susceptibility of L. donovani LUC amastigotes, infected macrophages maintained in 96-well plates were lysed and then luminescence intensity was measured as indicative of the intracellular parasite growth, using the Luciferase Assay System Kit (Promega, Madison, Wis.) according to the instructions of the supplier. To determine the susceptibility of L. donovani HU3 amastigotes, infected macrophages maintained in 24-well plates were fixed for 30 min at 4 °C with 2.5% paraformaldehyde phosphate-buffered saline (PBS; 1.2 mM KH2PO4, 8.1 mM Na2HPO4, 130 mM NaCl, and 2.6 mM KCl adjusted to pH 7) and permeabilized with 0.1% Triton X-100 in PBS for 30 min. Intracellular parasites and macrophages were detected by nuclear staining with ProLong® Gold antifade reagent plus DAPI (Invitrogen). The percentage infection and mean number of amastigotes from infected macrophages were determined with 200 macrophages/well.

THP-1 cells = test: Cellular toxicity (MTT assay) in THP-1 cells; assay type: cell-based, human; conditions: for EC50: Homo sapiens, THP-1, MTT assay, 72 h at 37 °C; for SI (EC50 THP-1/EC50 parasite): Selectivity Index
Experimental: Human myelomonocytic cell line THP-1 was grown at 37 °C and 5% CO2 in RPMI-1640 supplemented with 10% iFBS, 2 mM […], 100 U/mL penicillin, and 100 μg/mL streptomycin; 3 × 10^4 cells/well in 96-well plates were differentiated to macrophages with 20 ng/mL of PMA treatment for 48 h followed by 24 h of culture in fresh medium. Cellular toxicity of all compounds was determined using the colorimetric MTT-based assay after incubation at 37 °C for 72 h in the presence of increasing concentrations of compounds [71].

α-Glcase (Yeast Maltase) = molecular target: T1, α-Glcase (Yeast Maltase) (Saccharomyces cerevisiae, UniProt P53341); test: Glycosidase inhibition (Ki), yeast maltase α-glucosidase; assay type: biochemical
T1 construct: purchased
From the text: The inhibitory properties of the new sp^2-IGLs 1–12 and the α-C-allyl ONJ and OGJ glycosides 15, and 24 were examined against a panel of commercial glycosidases that included the α-glucosidases maltase (Saccharomyces cerevisiae) and amyloglucosidase (Aspergillus niger), the β-glucosidases from almonds and bovine liver, α-galactosidase from green coffee beans, β-galactosidase from Escherichia coli, α-mannosidase from Jack beans, and β-mannosidase from Helix pomatia. The corresponding inhibition constant (Ki) values are collected in Table 1.
Inhibition constant (Ki) values were determined by spectrophotometrically measuring the residual hydrolytic activities of the glycosidases against the respective o- (for β-galactosidase from E. coli) or p-nitrophenyl α- or β-D-glycopyranoside (for other glycosidases) in the presence of the iminosugars. Each assay was performed in phosphate buffer or phosphate-citrate buffer (for α- or β-mannosidase and amyloglucosidase) at the optimal pH for the enzymes. The reactions were initiated by addition of the enzyme to a solution of the substrate in the absence or presence of various inhibitor concentrations. The mixture was incubated for 10–30 min at 37 °C or 55 °C (for amyloglucosidase) and the reaction was quenched by addition of 1 M Na2CO3. Reaction times were appropriate to obtain 10–20% conversion of the substrate in order to achieve linear rates. The absorbance of the resulting mixture was determined at 405 nm. Approximate value of Ki was determined from the slope of Dixon plots using a fixed concentration of substrate (around the Km value for the different glycosidases) and various concentrations of inhibitor. Full Ki determinations and enzyme inhibition mode were determined from the slope of Lineweaver–Burk plots and double reciprocal analysis. Representative examples of Dixon and Lineweaver–Burk plots are shown in the Supplementary materials.

[4] = mean ± SD, three independent determinations, competitive inhibition
[5] = mean ± SD, three independent determinations, competitive inhibition, read-out: Ki, α-Glcase (Yeast Maltase)

T1 sequence (P53341 whole entry): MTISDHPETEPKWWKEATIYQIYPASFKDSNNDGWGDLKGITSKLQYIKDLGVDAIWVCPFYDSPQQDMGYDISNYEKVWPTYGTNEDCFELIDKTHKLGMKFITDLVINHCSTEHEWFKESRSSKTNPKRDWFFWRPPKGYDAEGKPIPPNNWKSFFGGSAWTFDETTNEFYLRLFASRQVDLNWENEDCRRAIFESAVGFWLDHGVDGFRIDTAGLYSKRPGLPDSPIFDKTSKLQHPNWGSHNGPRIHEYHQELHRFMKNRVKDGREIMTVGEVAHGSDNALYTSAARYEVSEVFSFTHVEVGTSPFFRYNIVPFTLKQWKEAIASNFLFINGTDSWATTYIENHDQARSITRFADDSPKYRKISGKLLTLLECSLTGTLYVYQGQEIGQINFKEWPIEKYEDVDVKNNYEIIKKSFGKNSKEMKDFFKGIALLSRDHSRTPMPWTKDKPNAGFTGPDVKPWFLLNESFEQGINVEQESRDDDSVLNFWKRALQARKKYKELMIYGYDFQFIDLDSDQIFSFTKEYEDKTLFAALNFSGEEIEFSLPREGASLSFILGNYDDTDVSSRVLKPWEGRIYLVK

CCCCCCCCCCCCSCCC[C@@H]1[C@H](O)[C@@H](O)[C@H](O)[C@H]2COC(=O)N12 [Compound 2, (1R)-1-[3-(Dodecylthio)propyl]-5N,6O-oxomethylidene-1-deoxynojirimycin]
GI50 [1]: 9.6 to 19 µM | EC50 [2]: 19.9 ± 2.76 µM | SI (EC50 MRC-5/EC50 parasite) [2]: < 1 | EC50 [3]: > 20 µM | EC50 (THP-1 cells): 72.2 ± 4.18 µM | SI (EC50 THP-1/EC50 parasite) (THP-1 cells): < 3.61 | Ki, α-Glcase (Yeast Maltase) (α-Glcase (Yeast Maltase); [4]): nanomolar competitive inhibitor | Ki (α-Glcase (Yeast Maltase); [5]): 0.74 ± 0.03 µM

CCCCCCCCSCCC[C@@H]1[C@H](O)[C@@H](O)[C@H](O)[C@H]2COC(=O)N12 [Compound 1, (1R)-1-[3-(Octylthio)propyl)-5N,6O-oxomethylidene-1-deoxynojirimycin]
GI50 [1]: 14 to 54 µM | EC50 [2]: 32.2 ± 1.03 µM | SI (EC50 MRC-5/EC50 parasite) [2]: 4.19 | EC50 [3]: 7.68 ± 0.29 µM | EC50 (THP-1 cells): 131 ± 4.29 µM | SI (EC50 THP-1/EC50 parasite) (THP-1 cells): 17.06 | Ki (α-Glcase (Yeast Maltase); [5]): 0.34 ± 0.02 µM

CCCCCCCCS(=O)(=O)CCC[C@@H]1[C@H](O)[C@@H](O)[C@H](O)[C@H]2COC(=O)N12 [Compound 4, (1R)-1-[3-(Octylsulfonyl)propyl]-5N,6O-oxomethylidene-1-deoxynojirimycin]
GI50 [1]: > 100 µM | EC50 [2]: 189 ± 15.6 µM | SI (EC50 MRC-5/EC50 parasite) [2]: < 9.45 | EC50 [3]: > 20 µM | EC50 (THP-1 cells): > 200 µM | Ki (α-Glcase (Yeast Maltase); [5]): 2.6 ± 0.3 µM

CC(C)(C)OC(=O)NCCS(=O)(=O)CCC[C@@H]1[C@H](O)[C@@H](O)[C@@H](O)[C@H]2COC(=O)N12 [Compound 12, (1R)-1-[3-(N-tert-Butoxycarbonylaminoethylsulfonyl)propyl]-5N,6O-oxomethylidene-1-deoxygalactonojirimycin]
GI50 (concentration to achieve 50% growth inhibition) [1]: did not show any significant antiproliferative activity | GI50 [1]: > 100 µM | EC50 [2]: 182 ± 14.9 µM | SI (EC50 MRC-5/EC50 parasite) [2]: < 9.08 | EC50 [3]: > 20 µM | EC50 (THP-1 cells): > 200 µM | Ki, α-Glcase (Yeast Maltase) (α-Glcase (Yeast Maltase); [4]): n.i.

CC(C)(C)OC(=O)NCCSCCC[C@@H]1[C@H](O)[C@@H](O)[C@H](O)[C@H]2COC(=O)N12 [Compound 3, (1R)-1-[3-(N-tert-Butoxycarbonylaminoethylthio)propyl]-5N,6O-oxomethylidene-1-deoxynojirimycin]
GI50 (concentration to achieve 50% growth inhibition) [1]: did not show any significant antiproliferative activity; also recorded: out of range; also recorded: did not display significant antiproliferative activity | GI50 [1]: > 100 µM | EC50 [2]: 134 ± 6.02 µM | SI (EC50 MRC-5/EC50 parasite) [2]: 8.95 | EC50 [3]: 15 ± 1.28 µM | EC50 (THP-1 cells): > 200 µM | Ki (α-Glcase (Yeast Maltase)): 0.28 ± 0.02 µM

CC(C)(C)OC(=O)NCCS(=O)(=O)CCC[C@@H]1[C@H](O)[C@@H](O)[C@H](O)[C@H]2COC(=O)N12 [Compound 6, (1R)-1-[3-(N-tert-Butoxycarbonylaminoethylsulfonyl)propyl]-5N,6O-oxomethylidene-1-deoxynojirimycin]
GI50 (concentration to achieve 50% growth inhibition) [1]: did not show any significant antiproliferative activity | GI50 [1]: > 100 µM | EC50 [2]: 155 ± 3.1 µM | SI (EC50 MRC-5/EC50 parasite) [2]: < 7.76 | EC50 [3]: > 20 µM | EC50 (THP-1 cells): > 200 µM | Ki (α-Glcase (Yeast Maltase); [5]): 0.75 ± 0.02 µM

C[C@@H]1[C@H](O)[C@@H](C)/C=C/C=C/C=C/C=C/C=C/C=C/C=C/[C@H](O[C@@H]2O[C@H](C)[C@@H](O)[C@H](N)[C@@H]2O)C[C@@H]2O[C@](O)(C[C@@H](O)C[C@@H](O)[C@H](O)CC[C@@H](O)C[C@@H](O)CC(=O)O[C@H]1C)C[C@H](O)[C@H]2C(=O)O [AmB, amphotericin B, reference compound]
EC50 [2]: 16.9 ± 2.44 µM | SI (EC50 MRC-5/EC50 parasite) [2]: 112.87 | EC50 [3]: 0.15 ± 0.01 µM | EC50 (THP-1 cells): 20.1 ± 4.43 µM | SI (EC50 THP-1/EC50 parasite) (THP-1 cells): 133.80

CCCCCCCCS(=O)(=O)CCC[C@@H]1[C@H](O)[C@@H](O)[C@@H](O)[C@H]2COC(=O)N12 [Compound 10, (1R)-1-[3-(Octylsulfonyl)propyl]-5N,6O-oxomethylidene-1-deoxygalactonojirimycin]
GI50 [1]: > 100 µM | EC50 [2]: 185 ± 21.2 µM | SI (EC50 MRC-5/EC50 parasite) [2]: 13.40 | EC50 [3]: 13.8 ± 1.72 µM | EC50 (THP-1 cells): > 200 µM | Ki, α-Glcase (Yeast Maltase) (α-Glcase (Yeast Maltase); [4]): n.i.

CCCCCCCCCCCCS(=O)(=O)CCC[C@@H]1[C@H](O)[C@@H](O)[C@@H](O)[C@H]2COC(=O)N12 [Compound 11, (1R)-1-[3-(Dodecylsulfonyl)propyl]-5N,6O-oxomethylidene-1-deoxygalactonojirimycin]
GI50 [1]: 26 to 82 µM | EC50 [2]: 162 ± 20.2 µM | SI (EC50 MRC-5/EC50 parasite) [2]: < 8.10 | EC50 [3]: > 20 µM | EC50 (THP-1 cells): > 200 µM | Ki, α-Glcase (Yeast Maltase) (α-Glcase (Yeast Maltase); [4]): n.i.

CCCCCCCCCCCCS(=O)(=O)CCC[C@@H]1[C@H](O)[C@@H](O)[C@H](O)[C@H]2COC(=O)N12 [Compound 5, (1R)-1-[3-(Dodecylsulfonyl)propyl]-5N,6O-oxomethylidene-1-deoxynojirimycin]
GI50 [1]: 26 to 82 µM | EC50 [2]: 71.5 ± 3.75 µM | SI (EC50 MRC-5/EC50 parasite) [2]: 6.25 | EC50 [3]: 11.4 ± 5.08 µM | EC50 (THP-1 cells): 100 ± 10.9 µM | SI (EC50 THP-1/EC50 parasite) (THP-1 cells): 8.78 | Ki (α-Glcase (Yeast Maltase); [5]): 2.5 ± 0.2 µM

CCCCCCCCCCCCSCCC[C@@H]1[C@H](O)[C@@H](O)[C@@H](O)[C@H]2COC(=O)N12 [Compound 8, (1R)-1-[3-(Dodecylthio)propyl]-5N,6O-oxomethylidene-1-deoxygalactonojirimycin]
GI50 [1]: 9.6 to 19 µM | EC50 [2]: 32.1 ± 1.94 µM | SI (EC50 MRC-5/EC50 parasite) [2]: < 1.60 | EC50 [3]: > 20 µM | EC50 (THP-1 cells): 68.3 ± 3.04 µM | SI (EC50 THP-1/EC50 parasite) (THP-1 cells): < 3.42 | Ki, α-Glcase (Yeast Maltase) (α-Glcase (Yeast Maltase); [4]): did not inhibit and n.i.
